From PubChem BioAssay (NCI)
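Interpolation was linear, between the two tested concentrations surrounding the appropriate level; five concentrations were tested over 48 hours in 96-well plates. GI50: concentration for 50% inhibition of growth. TGI marks complete inhibition of growth.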

Assays:
Experiment in all cases: NCI-60 cell line screen, 48 h
[1] = test system: 786-0 renal
[2] = test system: A498 renal
[3] = test system: A549 NSCLC
[4] = test system: ACHN renal
[5] = test system: BT-549 breast
[6] = test system: CAKI-1 renal
[7] = test system: CCRF-CEM leukemia
[8] = test system: COLO 205 colon
[9] = test system: DU-145 prostate
[10] = test system: HCC-2998 colon
[11] = test system: HCT-116 colon
[12] = test system: HCT-15 colon
[13] = test system: HL-60(TB) leukemia
[14] = test system: HOP-62 NSCLC
[15] = test system: HOP-92 NSCLC
[16] = test system: HS 578T breast
[17] = test system: HT29 colon
[18] = test system: IGROV1 ovarian
[19] = test system: K-562 leukemia
[20] = test system: KM12 colon
[21] = test system: M14 melanoma
[22] = test system: MALME-3M melanoma
[23] = test system: MCF7 breast
[24] = test system: MDA-MB-231 breast
[25] = test system: MDA-MB-435
[26] = test system: MOLT-4 leukemia
[27] = test system: NCI-H226 lung
[28] = test system: NCI-H23 lung
[29] = test system: NCI-H460 lung
[30] = test system: NCI-H522 lung
[31] = test system: NCI/ADR-RES ovarian
[32] = test system: OVCAR-3 ovarian
[33] = test system: OVCAR-4 ovarian
[34] = test system: OVCAR-5 ovarian
[35] = test system: OVCAR-8 ovarian
[36] = test system: PC-3 prostate
[37] = test system: RPMI-8226 leukemia
[38] = test system: RXF 393 renal
[39] = test system: SF-268 CNS
[40] = test system: SF-295 CNS
[41] = test system: SF-539 CNS
[42] = test system: SK-MEL-2 melanoma
[43] = test system: SK-MEL-28 melanoma
[44] = test system: SK-MEL-5 melanoma
[45] = test system: SK-OV-3 ovarian
[46] = test system: SN12C renal
[47] = test system: SNB-19 CNS
[48] = test system: SNB-75 CNS
[49] = test system: SR leukemia
[50] = test system: SW-620 colon
[51] = test system: T-47D breast
[52] = test system: TK-10 renal
[53] = test system: U251 CNS
[54] = test system: UACC-257 melanoma
[55] = test system: UACC-62 melanoma
[56] = test system: UO-31 renal

Work on COc1ccc(C2=Nc3c/c(=C\c4c(O)[nH]c5cc(Cl)ccc45)ccc3=N2)cc1 yielded a GI50 [1] of 7.85 µM, a TGI [1] of 20.6 µM and a GI50 [2] of 5.24 µM. The TGI [2] was > 100 µM, the GI50 [3] was 10.1 µM and the TGI [3] was 25.4 µM. For the same compound, the GI50 [4] was 17.3 µM, the TGI [4] was 41.3 µM and the GI50 [5] was 3.65 µM. For the same compound, the TGI [5] was 18.3 µM, the GI50 [6] was 14.5 µM and the TGI [6] was 43.6 µM. The GI50 [7] was 1.41 µM, the TGI [7] was 9.21 µM and the GI50 [8] was 7.19 µM. For the same compound, the TGI [8] was 21 µM, the GI50 [9] was 6.6 µM and the TGI [9] was 21.6 µM. For the same compound, the GI50 [10] was 10.2 µM, the TGI [10] was 22.1 µM and the GI50 [11] was 2.38 µM. For the same compound, the TGI [11] was 8.8 µM, the GI50 [12] was 3 µM and the TGI [12] was 11.5 µM. For the same compound, the GI50 [13] was 1.97 µM, the TGI [13] was 4.84 µM and the GI50 [14] was 12.4 µM. The TGI [14] was 29 µM, the GI50 [15] was 0.553 µM and the TGI [15] was 9.83 µM. It also gave a GI50 [16] of 10.6 µM, a TGI [16] of 43.1 µM and a GI50 [17] of 3.06 µM. It also gave a TGI [17] of 11.4 µM, a GI50 [18] of 17.6 µM and a TGI [18] of 50.5 µM. It also gave a GI50 [19] of 2.18 µM, a TGI [19] of 11.5 µM and a GI50 [20] of 2.49 µM. It also gave a TGI [20] of 14.2 µM, a GI50 [21] of 4.17 µM and a TGI [21] of 21.6 µM. It also gave a GI50 [22] of 2.87 µM, a TGI [22] of 12.7 µM and a GI50 [23] of 2.42 µM. It also gave a TGI [23] of 12.8 µM, a GI50 [24] of 5.23 µM and a TGI [24] of 19.6 µM. For the same compound, the GI50 [25] was 0.26 µM, the TGI [25] was 1.97 µM and the GI50 [26] was 4.85 µM. For the same compound, the TGI [26] was 29.9 µM, the GI50 [27] was > 100 µM and the TGI [27] was > 100 µM. The GI50 [28] was 10.2 µM, the TGI [28] was 24.2 µM and the GI50 [29] was 8.01 µM. The TGI [29] was 26.1 µM, the GI50 [30] was 7.07 µM and the TGI [30] was 29.1 µM. The GI50 [31] was 5 µM, the TGI [31] was 33.8 µM and the GI50 [32] was 2.43 µM. It also gave a TGI [32] of 8.24 µM, a GI50 [33] of 3.22 µM and a TGI [33] of 13.6 µM. For the same compound, the GI50 [34] was 22 µM, the TGI [34] was 60 µM and the GI50 [35] was 7.68 µM. The TGI [35] was 22.8 µM, the GI50 [36] was 3.18 µM and the TGI [36] was 28.9 µM. The GI50 [37] was 1.73 µM, the TGI [37] was 4.62 µM and the GI50 [38] was 3.16 µM. The TGI [38] was 12.2 µM, the GI50 [39] was 12.9 µM and the TGI [39] was 32.4 µM. The GI50 [40] was 12.3 µM, the TGI [40] was 63.8 µM and the GI50 [41] was 11.4 µM. The TGI [41] was 28 µM, the GI50 [42] was 8.86 µM and the TGI [42] was 26.6 µM. The GI50 [43] was 1.55 µM, the TGI [43] was 19.9 µM and the GI50 [44] was 10.7 µM. The TGI [44] was 22.7 µM, the GI50 [45] was 12.4 µM and the TGI [45] was 30.5 µM. It also gave a GI50 [46] of 13.9 µM, a TGI [46] of 30 µM and a GI50 [47] of 15.1 µM. For the same compound, the TGI [47] was 41.1 µM, the GI50 [48] was 3.1 µM and the TGI [48] was 14.2 µM. For the same compound, the GI50 [49] was 1.13 µM, the TGI [49] was 3.89 µM and the GI50 [50] was 3.01 µM. For the same compound, the TGI [50] was 19 µM, the GI50 [51] was 10.7 µM and the TGI [51] was 29.8 µM. It also gave a GI50 [52] of 21 µM, a TGI [52] of 39.3 µM and a GI50 [53] of 2.08 µM. The TGI [53] was 5.64 µM, the GI50 [54] was 11 µM and the TGI [54] was 25.8 µM. It also gave a GI50 [55] of 8.95 µM, a TGI [55] of 22.7 µM and a GI50 [56] of 10.2 µM. For the same compound, the TGI [56] was 26.7 µM.
